# From patent US20220235073A1, “ARTEMISININ-DERIVATIVE N-HETEROCYCLIC CARBENE GOLD(I) HYBRID COMPLEXES” (CENTRE NATIONAL DE LA RECHERCHE SCIENTIFIQUE, priority 2019, published 2022)
# Read-outs that look alike come from different tables or passages of the source.
# Assays:
# [1] = system: NF-κB transcription factor induced by TNFalpha; assay: NF-kB transcriptional activity, NF-kB Reporter (Luc)-A549 stable cell line; assay type: cell-based, human; conditions: NF-kB Reporter A549 cells, 1 ng/ml TNFα, 7 hours, read-out: IC50, inhibition of NF-κB transcription factor induced by TNFalpha
# Protocol: The NF-kB Reporter (Luc)—A549 Stable Cell Line was used to quantify the inhibitory effects of the indicated doses of the molecules of the invention on transcriptional activity of NF-kB activated by 1 ng/ml TNFα (7 hours of treatment).
# Luminescence was read using a luminometer and readings were normalized to wells that only contain media to obtain the Relative Luminescence Units (RLUs).
# 9. NF-kB Transcriptional Activity
# [2] = system: Nrf2; assay: NRF2 transcriptional activity, ARE Reporter Hep G2 cell line; assay type: cell-based, human; conditions: ARE Reporter Hep G2 cells, 16 hours, any dose
# Protocol: The ARE Reporter Hep G2 cell line containing a firefly luciferase gene under the control of ARE stably integrated into Hep G2 cells was used to quantify NRF2 transcriptional activity after 16 hours of treatment with the indicated doses of the different complexes. The results are shown as fold induction of ARE luciferase reporter expression. Dashed line indicates a fold induction of 1 (values >1 mean activation and values <1 mean inhibition).
# ARE-reporter-HepG-2 cells were harvested from culture in Growth Medium 1K and they were seeded at a concentration of 40,000 cells/well into white clear-bottom 96-well microplate in 45 μL of Growth Medium 1K without Geneticin. Cells were allowed to attach overnight and then treated with different concentrations of complex 2a (from 0.01 μM to 20 μM), auranofin (from 0.01 μM to 20 μM) or DHA (from 0.01 μM to 3, 5, 10, 20 and 50 μM), and complex (from 0.01 μM to 20 μM). After incubation at 37° C. and 5% CO2 for 16 hours, ONE-Step luciferase assay reagent (100 μL) was added and rock at room temperature for over 15 minutes. Then the luminescence of each well was determined by CLARIOstar microplate reader to quantify induction of ARE. Three independent experiments were performed as biological triplicates. The results are in FIG. 4.
Compound,IC50 [1] [µM],Effect on activity of Nrf2 [2],IC50 ([1]; Homo sapiens) [µM]
CC(=O)OC[C@H]1O[C@@H]([S-])[C@H](OC(C)=O)[C@@H](OC(C)=O)[C@@H]1OC(C)=O.CCP(CC)CC.[Au+] [Auranofin],2.96,activate,
"C[C@H]1[C@@H](O)O[C@@H]2O[C@]3(C)CC[C@H]4[C@H](C)CC[C@@H]1[C@@]24OO3 [DHA, dihydroartemisinin]",,,8.91
